Measurements taken from US20060135461A1, “Reduction of hair growth” (priority 2004, published 2006).
Where a name gives a salt, the structure may show the parent alone. Read-outs that look alike come from different tables or passages of the source.

Key:
human hair follicles = test: Human Hair Follicle Growth Assay; type: cell-based; details: for Length Increase (mm): follicle length day 6 minus day 0
Excerpt: Human Hair Follicle Growth Assay
Human skin was obtained from a plastic surgeon as a by-product of face-lift procedures. The skin samples generally consisted of haired and non-haired regions taken from the area of the face. Immediately after removal, the skin was placed in Williams E medium containing antibiotics, and kept refrigerated. The Williams E medium was commercially obtained (Life Technologies, Gaithersburg, Md.), and has been formulated with essential nutrients for maintaining viability of hair follicle in an in-vitro environment.
Human hair follicles in growth phase (anagen) were isolated from face-lift tissue under a dissecting scope using a scalpel and watchmakers forceps. The skin was sliced into thin strips exposing 2-3 rows of follicles that could readily be dissected. Follicles were placed into 0.5 ml Williams E medium supplemented with 2 mM L-glutamine, 10 ug/ml insulin, 10 ng/ml hydrocortisone, 100 units penicillin, 0.1 mg/ml streptomycin and 0.25 μg/ml amphotericin B. The follicles were incubated in 24 well plates (1 follicle/well) at 37° C. in an atmosphere of 5% CO2 and 95% air. Hair follicle images were taken in the 24-well plates under the dissecting scope under a power of 20×. Hair follicle lengths were measured on day 0 (day follicles were placed in culture) and again on day 6-7. In this system follicles appear to fully differentiate into a hair fiber and increase in length at a rate similar to the human, in vivo, rate of about 0.3 mm/day. For testing survivin inhibitors, the inhibitor was included in the culture medium from time 0 and remained in the medium throughout the course of the experiment.

survivin = test: Determination of Hair Follicle Survivin Protein Content by ELISA; type: cell-based, human; details: for Survivin Protein: human hair follicles in vitro, normalized to total protein; for Inhibition: survivin protein level
Description: Determination of Hair Follicle Survivin Protein Content by ELISA (Enzyme-Linked Immunosorbent Assay)
For protein extraction, 5-micron cryosections of the hair follicles were collected into the centrifuge tubes, followed by short time incubation with the lysis buffer (BD Bioscience; CA; Cat #K 1848-1). The solutions were centrifuged for 30 minutes at 14,000×g at 4° C., and the supernatants were frozen and stored at −80° C. For quantification of survivin protein, a commercially available ELISA kit was used, following the manufacturer's instructions (Assay Design Inc; Michigan; Cat # 900-111). Total protein concentration in the extracts was determined by using the bicinchoninic acid (BCA) protein assay (Pierce Chemical Company, Rockford; Cat #23225). The readings of optical density were performed, using EL340 Bio Kinetics microplate reader (Bio-Tek Instruments Inc). The survivin levels (in pg/ml) were normalized against the total amount of protein (in ug/ml) extracted from hair follicles.

flank organ hair growth = test: Golden Syrian Hamster Assay; type: in vivo; details: for % Inhibition: hair mass vs vehicle side; for Treated Side: hair mass
Excerpt: Golden Syrian Hamster Assay
Male intact Golden Syrian hamsters are considered acceptable models for human beard hair growth in that they display oval shaped flank organs, one on each side, each about 8 mm. in major diameter. These organs produce fine light colored hair typical of the animal pelage found on the body. In response to androgens the flank organs produce dark coarse hair similar to male human beard hair. To evaluate the effectiveness of a composition, the flank organs of each of a group of hamsters are depilated by applying a thioglycolate-based chemical depilatory (Surgex) and/or shaved. To one organ of each animal 10 μl of vehicle alone once a day is applied, while to the other organ of each animal an equal amount of vehicle containing a survivin inhibitor. After thirteen applications (one application per day for five days a week), the flank organs are shaved and the amount of recovered hair (hair mass) from each is weighed. For certain experiments, where indicated, the treatment period was for less than 13 applications. The reduced treatment period allowed for determination of onset in activity. Percent-reduction of hair growth is calculated by subtracting the hair mass (mg) value of the test compound treated side from the hair mass value of the vehicle treated side; the delta value obtained is then divided by the hair mass value of the vehicle treated side, and the resultant number is multiplied by 100. Visual evaluations comparing hair regrowth between the drug treated and the vehicle control site were made generally on day-8, day-15 and on day-19. These observations provide an identification of onset in activity (and thus efficacy).

[1] = 5% topical, vehicle 20% propylene glycol in ethanol
[2] = 10% topical, vehicle 10% DMSO in ethanol, water, emerest, and propylene glycol

Compound: CC[C@H](CO)Nc1nc(NCc2ccccc2)c2ncn(C(C)C)c2n1 [Roscovitine, (R)-2-[[9-(1-methylethyl)-6-[(phenylmethyl)amino]-9H-purin-2-yl]amino]-1-butanol]
- Length Increase in mm (human hair follicles; 10 uM Roscovitine in culture medium): 0.97 ± 0.13 mm
- Length Increase in mm (human hair follicles; 15 uM Roscovitine in culture medium): 0.5 ± 0.1 mm
- Length Increase in mm (human hair follicles; 20 uM Roscovitine in culture medium): 0.05 ± 0.05 mm
- inhibition at 10 µM (human hair follicles; Homo sapiens, 10 uM Roscovitine vs control): 42%
- inhibition at 15 µM (human hair follicles; Homo sapiens, 15 uM Roscovitine vs control): 60%
- inhibition at 20 µM (human hair follicles; Homo sapiens, 20 uM Roscovitine vs control, read-out: Hair Growth Inhibition): 80%
- Survivin Protein (survivin; 15 uM Roscovitine): 0.03 pg/mg
- Survivin Protein (survivin; 20 uM Roscovitine): 0.007 pg/mg
- Inhibition (survivin; 15 uM Roscovitine vs control): 62%
- Inhibition (survivin; 20 uM Roscovitine vs control): 95%

Compound: CC(Cc1ccc(OC(=O)CN(C)C)c(OC(=O)CN(C)C)c1)C(C)Cc1ccc(OC(=O)CN(C)C)c(OC(=O)CN(C)C)c1 [G4N, meso-1,4-bis[(3,4-dimethylaminoacetoxy)phenyl]-(2R,3S)-dimethylbutane hydrochloride salt]
- Length Increase (mm) (human hair follicles; G4N 20 uM in culture medium): 1.19 ± 0.11 mm
- Length Increase (mm) (human hair follicles; G4N 50 uM in culture medium): 0.61 ± 0.14 mm
- inhibition at 20 µM (human hair follicles; Homo sapiens, 144 h, 20 uM, hair growth vs control, day 6, read-out: % Inhibition): 30%
- inhibition at 50 µM (human hair follicles; Homo sapiens, 144 h, 50 uM, hair growth vs control, day 6): 64%
- % Inhibition (flank organ hair growth; [1]): 48 ± 6%
- Treated Side (flank organ hair growth; [1]): 1.17 ± 0.2 mg

Compound: COc1cc([C@H]2Oc3cc([C@H]4Oc5cc(O)cc(O)c5C(=O)[C@@H]4O)ccc3O[C@@H]2CO)ccc1O [Silibinin, (2R,3R)-2-[(2R,3R)-2,3-dihydro-3-(4-hydroxy-3-methoxyphenyl)-2-(hydroxymethyl)-1,4-benzodioxin-6-yl]-2,3-dihydro-3,5,7-trihydroxy-4H-1-benzopyran-4-one]
- % Inhibition (flank organ hair growth; [2]): 62.1 + 5.5%
- Treated Side (flank organ hair growth; [2]): 0.77 ± .14 mg
